This assay has as its target T1, influenza A virus (IAV) PA-Nter fragment (amino acids 1-209) (Influenza A virus, UniProt P31343).
T1 construct: PA-Nter fragment (amino acids 1-209); made in house
Briefly: FRET endonuclease activity assay. Type of assay: biochemical. Particulars: calculated from initial reaction velocities (v0); 0.5 μM PA-Nter, 1.6 μM RNA substrate.

Molecules are shown by their SMILES.

As a reminder, the IC50 is the concentration at which inhibition is half-maximal.

In the case of `O=C(O)c1cn(Cc2ccccc2-c2ccccc2)c2cccnc2c1=O`, the concentration for half-maximal inhibition (IC50) is 760 nM.
The same measure for `O=C(O)c1cn(CC2(c3ccccc3)CCCC2)c2nccnc2c1=O`: 9700 nM.
As for `O=C(O)c1cn(Cc2ccccc2-c2ccccc2)c2cc(Br)cnc2c1=O` [1-(Biphenyl-2-ylmethyl)-7-bromo-4-oxo-1,4-dihydro-1,5-naphthyridine-3-carboxylic acid], the IC50 was 1500 nM.
Consider `O=C(O)c1cn(CC2(c3ccccc3)CCCC2)c2cccnc2c1=O`, for which the IC50 is 600 nM.
For `Cc1cnc2c(=O)c(C(=O)O)cn(Cc3ccccc3-c3ccccc3)c2c1`, the IC50 was 570 nM.
Take `O=C(O)c1cn(Cc2ccccc2-c2ccccc2)c2nccnc2c1=O`: the IC50 was 7800 nM.
Consider `O=C(O)c1cn(Cc2ccccc2-c2ccc(Cl)cc2)c2cccnc2c1=O`, for which the IC50 is 430 nM.

The values above are taken from patent US9505758B2 (priority 2013, dated 2016).
